# Measured values taken from patent US20260285846A1, “REV-ERB AGONISTS FOR TH17-MEDIATED INFLAMMATORY DISORDERS” (UNIVERSITY OF FLORID RESEARCH FOUNDATION, iNCORPORATED, priority 2021, published 2026).
# Target: REV-ERBα LBD (Homo sapiens, UniProt P20393, DEL324-422)
# Assay: biochemical
# Conditions: FRET assay; 6xHistag-REV-ERBα LBD with FITC-labeled SMRT corepressor peptide; read-out: REVERBα (Agonism of REV-ERBα, EC50)
# Method: TR-FRET corepressor interaction assay. The time-resolved fluorescence resonance energy transfer (TR-FRET) assay was performed in black low-volume 384-well plates (Greiner). Each well contained 4 nM 6×Histag-REV-ERBα LBD (human; residues 281-614 A324-422) or 6×Histag-REV-ERBα LBD (human; residues 381-579) protein expressed in and purified from Escherichia coli using nickel affinity and size exclusion chromatography; 1 nM LanthaScreen Elite Tb-anti-HIS Antibody (Thermo Fisher Scientific); and 400 nM FITC-labeled peptide derived from the SMRT corepressor ([…]) containing a N-terminal FITC label with a six-carbon linker (Ahx) and an amidated C-terminus for stability (synthesized by LifeTein) in TR-FRET buffer (20 mM potassium phosphate, pH 7.4, 50 mM potassium chloride, 1 mM dithiothreitol, and 0.005% Tween-20). Ligand stocks were prepared via serial dilution in DMSO, added to wells in triplicate, and plates were incubated at 4° C. for 2 h and read using a BioTek Synergy Neo multimode plate reader. The Tb donor was excited at 340 nm; its fluorescence emission was monitored at 495 nm, and the acceptor FITC emission was measured at 520 nm; and the TR-FRET ratio was calculated as the signal at 520 nm divided by the signal at 495 nm. Data were plotted using GraphPad Prism as TR-FRET ratio vs. ligand concentration and fit to sigmoidal dose response curve equation.
# Exemplary compounds of the present disclosure were assayed as described above to assess agonism of REV-ERBα. Results of the FRET assay are shown in Table 2 below (A: EC50<100 nM; B: EC50 100 nM-1000 nM; C: EC50>1000 nM; NT: not tested).
# Chain of REV-ERBα LBD (P20393 with tags, fused parts or gaps DEL324-422): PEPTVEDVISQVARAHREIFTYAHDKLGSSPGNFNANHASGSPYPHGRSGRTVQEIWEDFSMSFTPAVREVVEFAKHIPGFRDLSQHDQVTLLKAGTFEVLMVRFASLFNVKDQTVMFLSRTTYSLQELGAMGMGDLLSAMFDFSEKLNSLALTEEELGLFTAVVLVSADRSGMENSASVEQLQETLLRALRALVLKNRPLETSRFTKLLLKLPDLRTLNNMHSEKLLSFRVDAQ
# Chain of REV-ERBα LBD (Q9Y618 2335-2356 partner limits assumed): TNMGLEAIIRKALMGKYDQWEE
row,SMILES,EC50 [µM]
1,"CC(NS(=O)(=O)C1CC1)c1cn(CC(C)(C)C)c2cc(-c3cnccc3C#N)c(F)cc12 (single isomer, unassigned) [Compound 33, (S or R) N-(1-(6-(4-cyanopyridin-3-yl)-5-fluoro-1-neopentyl-1H-indol-3-yl)ethyl)cyclopropanesulfonamide]",0.1 to 1
2,"CC(C)(C)Cn1cc([C@H](NS(=O)(=O)C2CC2)C(F)F)c2ccc(-c3ccc(N)nc3C(F)(F)F)cc21 [Compound 167, (S)—N-(1-(6-(6-amino-2-(trifluoromethyl)pyridin-3-yl)-1-neopentyl-1H-indol-3-yl)-2,2-difluoroethyl)cyclopropanesulfonamide]",< 0.1
3,"CC(C)(C)Cn1cc([C@H](NS(=O)(=O)C2CC2)C(F)F)c2cc(F)c(-c3ncc(Cl)cc3F)cc21 [Compound 92, (S)—N-(1-(6-(5-chloro-3-fluoropyridin-2-yl)-5-fluoro-1-neopentyl-1H-indol-3-yl)-2,2-difluoroethyl)cyclopropanesulfonamide]",< 0.1
4,"O=c1ccc(-c2nc3c(cc2F)c([C@H](NS(=O)(=O)C2CC2)C(F)F)cn3C2CCC2)c(C(F)(F)F)[nH]1 [Compound 175, (S)—N-(1-(1-cyclobutyl-5-fluoro-6-(6-oxo-2-(trifluoromethyl)-1,6-dihydropyridin-3-yl)-1H-pyrrolo[2,3-b]pyridin-3-yl)-2,2-difluoroethyl)cyclopropanesulfonamide]",< 0.1
5,"Cn1ncc(C(F)F)c1-c1cc2c(cc1F)c([C@H](NS(=O)(=O)C1CC1)C(F)F)cn2CC(C)(C)C [Compound 125, (S)—N-(1-(6-(4-(difluoromethyl)-1-methyl-1H-pyrazol-5-yl)-5-fluoro-1-neopentyl-1H-indol-3-yl)-2,2-difluoroethyl)cyclopropanesulfonamide]",< 0.1
6,"CC(C)(C)Cn1cc([C@H](NS(=O)(=O)C2CC2)C(F)F)c2ccc(-c3ccc(=O)[nH]c3C(F)(F)F)cc21 [Compound 166, (S)—N-(2,2-difluoro-1-(1-neopentyl-6-(6-oxo-2-(trifluoromethyl)-1,6-dihydropyridin-3-yl)-1H-indol-3-yl)ethyl)cyclopropanesulfonamide]",< 0.1
7,"CC(C)(C)Cn1cc([C@H](NS(=O)(=O)C2CC2)C(F)F)c2ccc(-c3c(C(F)(F)F)ccc[n+]3[O-])cc21 [Compound 106, (S)-2-(3-(1-(cyclopropanesulfonamido)-2,2-difluoroethyl)-1-neopentyl-1H-indol-6-yl)-3-(trifluoromethyl)pyridine 1-oxide]",0.1 to 1
8,"CC(NS(=O)(=O)C1CC1)c1cn(CC(C)(C)C)c2cc(-c3ccc(C#N)nc3)c(F)cc12 (centres unmarked) [Compound 69, N-(1-(6-(6-cyanopyridin-3-yl)-5-fluoro-1-neopentyl-1H-indol-3-yl)ethyl)cyclopropanesulfonamide]",0.1 to 1
9,"CC(C)(C)Cn1cc([C@H](NS(=O)(=O)C2CC2)C(F)F)c2ccc(-c3cccnc3C(F)(F)F)cc21 [Compound 13, (S)—N-(2,2-difluoro-1-(1-neopentyl-6-(2-(trifluoromethyl)pyridin-3-yl)-1H-indol-3-yl)ethyl)cyclopropanesulfonamide]",< 0.1
10,"O=S(=O)(N[C@@H](c1cn(C2CCC2)c2nc(-c3ccc(F)cc3C(F)(F)F)c(F)cc12)C(F)F)C1CC1 [Compound 155, (S)—N-(1-(1-cyclobutyl-5-fluoro-6-(4-fluoro-2-(trifluoromethyl)phenyl)-1H-pyrrolo[2,3-b]pyridin-3-yl)-2,2-difluoroethyl)cyclopropanesulfonamide]",< 0.1
11,"CC(C)(C)Cn1cc([C@H](NS(=O)(=O)C2CC2)C(F)F)c2cc(F)c(-c3cncnc3C(F)(F)F)cc21 [Compound 112, (S)—N-(2,2-difluoro-1-(5-fluoro-1-neopentyl-6-(4-(trifluoromethyl)pyrimidin-5-yl)-1H-indol-3-yl)ethyl)cyclopropanesulfonamide]",< 0.1

# Further lines, results first:
row,EC50 [µM],SMILES
1,< 0.1,"CC(C)(C)Cn1cc([C@H](NS(=O)(=O)C2CC2)C(F)F)c2cc(F)c(-c3ncccc3C(F)F)cc21 [Compound 111, (S)—N-(1-(6-(3-(difluoromethyl)pyridin-2-yl)-5-fluoro-1-neopentyl-1H-indol-3-yl)-2,2-difluoroethyl)cyclopropanesulfonamide]"
2,< 0.1,"CC(C)(C)Cn1cc([C@H](NS(=O)(=O)C2CC2)C(F)F)c2cc(F)c(-c3ncccc3C3CC3)cc21 [Compound 115, (S)—N-(1-(6-(3-cyclopropylpyridin-2-yl)-5-fluoro-1-neopentyl-1H-indol-3-yl)-2,2-difluoroethyl)cyclopropanesulfonamide]"
3,< 0.1,"CC(C)(C)Cn1cc([C@H](NS(=O)(=O)C2CC2)C(F)F)c2cc(F)c(-c3c(C(F)F)ccnc3C#N)cc21 [Compound 122, N-((1S)-1-(6-(2-cyano-4-(difluoromethyl)pyridin-3-yl)-5-fluoro-1-neopentyl-1H-indol-3-yl)-2,2-difluoroethyl)cyclopropanesulfonamide]"
4,< 0.1,"O=S(=O)(N[C@@H](c1cn(C2CCC2)c2nc(-c3cc(F)cnc3C(F)(F)F)c(F)cc12)C(F)F)C1CC1 [Compound 150, (S)—N-(1-(1-cyclobutyl-5-fluoro-6-(5-fluoro-2-(trifluoromethyl)pyridin-3-yl)-1H-pyrrolo[2,3-b]pyridin-3-yl)-2,2-difluoroethyl)cyclopropanesulfonamide]"
5,< 0.1,"CC(C)(C)Cn1cc([C@H](NS(=O)(=O)C2CC2)C(F)F)c2cc(F)c(-c3cc(F)cnc3C#N)cc21 [Compound 96, (S)—N-(1-(6-(2-cyano-5-fluoropyridin-3-yl)-5-fluoro-1-neopentyl-1H-indol-3-yl)-2,2-difluoroethyl)cyclopropanesulfonamide]"
6,< 0.1,"CC(C)(C)Cn1cc([C@H](NS(=O)(=O)C2CC2)C(F)F)c2ccc(-c3ncccc3C3CC3)cc21 [Compound 101, (S)—N-(1-(6-(3-cyclopropylpyridin-2-yl)-1-neopentyl-1H-indol-3-yl)-2,2-difluoroethyl)cyclopropanesulfonamide]"
7,< 0.1,"Nc1ccc(-c2nc3c(cc2F)c([C@H](NS(=O)(=O)C2CC2)C(F)F)cn3C2CCC2)c(C(F)(F)F)n1 [Compound 180, (S)—N-(1-(6-(6-amino-2-(trifluoromethyl)pyridin-3-yl)-1-cyclobutyl-5-fluoro-1H-pyrrolo[2,3-b]pyridin-3-yl)-2,2-difluoroethyl)cyclopropanesulfonamide]"
8,< 0.1,"CC(C)(C)Cn1cc([C@H](NS(=O)(=O)C2CC2)C(F)F)c2cc(F)c(-c3c(F)ccnc3C(F)(F)F)cc21 [Compound 131, N-((1S)-2,2-difluoro-1-(5-fluoro-6-(4-fluoro-2-(trifluoromethyl)pyridin-3-yl)-1-neopentyl-1H-indol-3-yl)ethyl)cyclopropanesulfonamide]"
9,< 0.1,"CC(C)(C)Cn1cc([C@H](NS(=O)(=O)C2CC2)C(F)F)c2cc(F)c(-c3ccc(F)cc3C(F)(F)F)cc21 [Compound 164, (S)—N-(2,2-difluoro-1-(5-fluoro-6-(4-fluoro-2-(trifluoromethyl)phenyl)-1-neopentyl-1H-indol-3-yl)ethyl)cyclopropanesulfonamide]"
10,< 0.1,"CC(C)(C)Cn1cc([C@H](NS(=O)(=O)C2CC2)C(F)F)c2ccc(-c3ncc(Cl)cc3F)cc21 [Compound 77, (S)—N-(1-(6-(5-chloro-3-fluoropyridin-2-yl)-1-neopentyl-1H-indol-3-yl)-2,2-difluoroethyl)cyclopropanesulfonamide]"
11,< 0.1,"CC(NS(=O)(=O)C1CC1)c1cn(CC(C)(C)C)c2cc(-c3c(F)cccc3C#N)ccc12 (single isomer, unassigned) [Compound 27, (S or R) N-[(1R)-1-[6-(2-cyano-6-fluoro-phenyl)-1-(2,2-dimethylpropyl)indol-3-yl]ethyl]cyclo]"
12,< 0.1,"CC(C)(C)Cn1cc([C@H](NS(=O)(=O)C2CCC2)C(F)F)c2cc(F)c(-c3ccc(F)cc3C(F)(F)F)cc21 [Compound 170, (S)—N-(2,2-difluoro-1-(5-fluoro-6-(4-fluoro-2-(trifluoromethyl)phenyl)-1-neopentyl-1H-indol-3-yl)ethyl)cyclobutanesulfonamide]"
13,< 0.1,"CC(C)(C)Cn1cc([C@H](NS(=O)(=O)C2CCC2)C(F)F)c2cc(F)c(-c3cc(F)cnc3C(F)(F)F)cc21 [Compound 137, (S)—N-(2,2-difluoro-1-(5-fluoro-6-(5-fluoro-2-(trifluoromethyl)pyridin-3-yl)-1-neopentyl-1H-indol-3-yl)ethyl)cyclobutanesulfonamide]"
14,< 0.1,"CC(C)(C)Cn1cc([C@H](NS(=O)(=O)C2CC2)C(F)F)c2ccc(-c3cc(F)cnc3C(F)F)cc21 [Compound 119, (S)—N-(1-(6-(2-(difluoromethyl)-5-fluoropyridin-3-yl)-1-neopentyl-1H-indol-3-yl)-2,2-difluoroethyl)cyclopropanesulfonamide]"
15,< 0.1,"CC(C)(C)Cn1cc([C@H](NS(=O)(=O)C2CC2)C(F)F)c2ccc(C3CCOCC3)cc21 [Compound 174, (S)—N-(2,2-difluoro-1-(1-neopentyl-6-(tetrahydro-2H-pyran-4-yl)-1H-indol-3-yl)ethyl)cyclopropanesulfonamide]"
